In US20250205344A1, “2,4-DIOXOTETRAHYDROPYRIMIDINYL DERATIVES AS DEGRONS IN PROTACS” (GLAXOSMITHKLINE INTELLECTUAL PROPERTY DEVELOPMENT LIMITED, priority 2022, published 2025):
Structures can show the parent of a compound that is named as a salt.

target: T1, Androgen Receptor (Homo sapiens, UniProt P10275, T878A); assay: Androgen Receptor Degradation Assay (Nano-Glo HiBiT); assay type: cell-based; conditions: LNCaP, 18 h, HiBiT-tagged AR in human LnCaP cells, read-out: mean asymptote max
T1 construct: the AR gene was modified, using CRISPR/Cas9 editing, so the expressed AR protein included an 11 amino acid HiBiT tag; endogenous in cells; host or cells: clonal LnCaP-derived line, AR gene edited by CRISPR/Cas9
T1 sequence (P10275 whole entry T878A): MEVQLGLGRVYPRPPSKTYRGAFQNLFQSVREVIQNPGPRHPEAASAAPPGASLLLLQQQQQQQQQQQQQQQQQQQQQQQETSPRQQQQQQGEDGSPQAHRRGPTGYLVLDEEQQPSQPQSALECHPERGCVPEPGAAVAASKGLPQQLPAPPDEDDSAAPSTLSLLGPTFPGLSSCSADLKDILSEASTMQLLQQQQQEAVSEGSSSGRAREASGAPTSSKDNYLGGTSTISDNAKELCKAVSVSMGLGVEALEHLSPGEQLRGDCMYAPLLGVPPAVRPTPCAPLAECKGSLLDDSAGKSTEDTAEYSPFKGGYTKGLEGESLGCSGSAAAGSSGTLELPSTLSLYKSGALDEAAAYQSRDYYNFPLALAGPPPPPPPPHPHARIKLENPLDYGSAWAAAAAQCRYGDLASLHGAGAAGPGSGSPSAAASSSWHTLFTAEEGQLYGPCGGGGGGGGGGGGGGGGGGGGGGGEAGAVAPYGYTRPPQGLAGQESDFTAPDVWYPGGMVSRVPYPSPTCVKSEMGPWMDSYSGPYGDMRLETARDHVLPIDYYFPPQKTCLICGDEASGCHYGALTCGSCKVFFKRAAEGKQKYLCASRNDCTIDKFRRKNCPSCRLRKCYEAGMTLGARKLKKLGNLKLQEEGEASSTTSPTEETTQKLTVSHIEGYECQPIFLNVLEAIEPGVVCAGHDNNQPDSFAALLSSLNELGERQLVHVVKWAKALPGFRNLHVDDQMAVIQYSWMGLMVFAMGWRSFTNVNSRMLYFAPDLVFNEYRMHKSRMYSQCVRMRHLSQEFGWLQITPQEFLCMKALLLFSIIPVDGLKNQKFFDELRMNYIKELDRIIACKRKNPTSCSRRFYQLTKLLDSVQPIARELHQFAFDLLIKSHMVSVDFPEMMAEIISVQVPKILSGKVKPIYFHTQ
T1 sequence (Q96SW2 whole entry partner): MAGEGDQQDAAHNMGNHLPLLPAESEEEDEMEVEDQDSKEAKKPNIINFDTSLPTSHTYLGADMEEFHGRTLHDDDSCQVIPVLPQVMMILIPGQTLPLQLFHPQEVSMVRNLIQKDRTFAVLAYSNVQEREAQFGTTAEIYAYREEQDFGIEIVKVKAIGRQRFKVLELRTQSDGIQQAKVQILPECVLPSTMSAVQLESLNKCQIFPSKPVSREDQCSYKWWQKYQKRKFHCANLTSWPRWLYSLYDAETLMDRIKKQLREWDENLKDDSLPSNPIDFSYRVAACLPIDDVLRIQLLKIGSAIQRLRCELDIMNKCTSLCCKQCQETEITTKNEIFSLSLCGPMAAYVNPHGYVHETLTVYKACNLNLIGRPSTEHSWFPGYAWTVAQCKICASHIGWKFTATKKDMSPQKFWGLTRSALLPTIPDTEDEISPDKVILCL
T1 sequence (Q16531 whole entry partner): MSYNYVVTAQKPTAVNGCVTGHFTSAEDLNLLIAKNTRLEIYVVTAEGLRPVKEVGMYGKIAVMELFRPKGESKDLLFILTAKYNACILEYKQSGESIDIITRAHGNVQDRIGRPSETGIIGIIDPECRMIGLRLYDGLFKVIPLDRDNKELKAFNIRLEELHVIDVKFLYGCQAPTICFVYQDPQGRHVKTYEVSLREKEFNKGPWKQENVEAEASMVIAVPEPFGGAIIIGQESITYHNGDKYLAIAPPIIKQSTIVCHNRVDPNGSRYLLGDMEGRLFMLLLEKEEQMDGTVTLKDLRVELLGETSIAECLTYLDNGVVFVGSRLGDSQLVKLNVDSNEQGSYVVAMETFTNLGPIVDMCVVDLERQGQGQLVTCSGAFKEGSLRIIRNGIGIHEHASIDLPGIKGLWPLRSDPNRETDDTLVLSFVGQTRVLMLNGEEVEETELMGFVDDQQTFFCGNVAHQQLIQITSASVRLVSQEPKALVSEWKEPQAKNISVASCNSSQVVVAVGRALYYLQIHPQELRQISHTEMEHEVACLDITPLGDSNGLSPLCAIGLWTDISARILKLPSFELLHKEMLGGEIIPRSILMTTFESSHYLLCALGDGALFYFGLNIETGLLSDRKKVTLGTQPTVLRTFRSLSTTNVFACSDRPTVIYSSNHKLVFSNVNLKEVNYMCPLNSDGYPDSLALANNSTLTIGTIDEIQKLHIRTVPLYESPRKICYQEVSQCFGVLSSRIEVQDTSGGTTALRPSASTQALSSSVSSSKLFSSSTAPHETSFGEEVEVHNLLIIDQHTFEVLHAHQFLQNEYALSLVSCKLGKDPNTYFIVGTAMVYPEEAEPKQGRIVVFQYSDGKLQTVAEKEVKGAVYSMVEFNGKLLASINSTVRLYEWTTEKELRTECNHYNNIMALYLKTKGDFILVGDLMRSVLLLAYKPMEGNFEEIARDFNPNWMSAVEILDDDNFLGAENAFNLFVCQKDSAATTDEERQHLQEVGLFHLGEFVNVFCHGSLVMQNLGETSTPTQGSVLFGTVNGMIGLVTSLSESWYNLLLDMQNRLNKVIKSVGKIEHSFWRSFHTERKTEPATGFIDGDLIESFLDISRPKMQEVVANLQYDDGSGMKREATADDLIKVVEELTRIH
Procedure, shortened: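 LnCaP cells with CRISPR-knocked-in N-terminal HiBiT-tagged AR (10,000/well) treated 18 h at 37 °C with PROTACs over 11 threefold concentrations; lytic HiBiT luminescence normalised to DMSO (0%) and cell-free (100%) controls. Relative DC50 = 4-parameter fit inflection; absolute DC50 = 50% degradation interpolation; Dmax = maximum observed degradation.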

Dmax [%] | Structure (SMILES)
≥ 50 | CC(C)n1ccc2c(N3CCC(=O)NC3=O)cc(C(=O)N3CCC4(CCCN(CCCCCc5ccc(C(=O)N[C@H]6CC[C@H](Oc7ccc(C#N)c(Cl)c7)CC6)cc5)C4)CC3)cc21 [EAR83, N-((1r,4r)-4-(3-Chloro-4-cyanophenoxy)cyclohexyl)-4-(5-(9-(4-(2,4-dioxotetrahydropyrimidin-1(2H)-yl)-1-isopropyl-1H-indole-6-carbonyl)-2,9-diazaspiro[5.5]undecan-2-yl)pentyl)benzamide]
≥ 50 | CN(CCCCCN1CCC(n2ncc3c(N4CCC(=O)NC4=O)cccc32)CC1)c1ccc(C(=O)N[C@H]2CC[C@H](Oc3ccc(C#N)c(Cl)c3)CC2)nn1 [EAR220, N-((1r,4r)-4-(3-chloro-4-cyanophenoxy)cyclohexyl)-6-((5-(4-(4-(2,4-dioxotetrahydropyrimidin-1(2H)-yl)-1H-indazol-1-yl)piperidin-1-yl)pentyl)(methyl)amino)pyridazine-3-carboxamide]
≥ 50 | N#Cc1ccc(O[C@H]2CC[C@H](NC(=O)c3ccc(N4CC(CN5CCC(n6ccc7c(N8CCC(=O)NC8=O)cccc76)CC5)C4)nn3)CC2)cc1Cl [EAR72, N-((1r,4r)-4-(3-Chloro-4-cyanophenoxy)cyclohexyl)-6-(3-((4-(4-(2,4-dioxotetrahydropyrimidin-1(2H)-yl)-1H-indol-1-yl)piperidin-1-yl)methyl)azetidin-1-yl)pyridazine-3-carboxamide hydrochloride]
≥ 50 | N#Cc1ccc(O[C@H]2CC[C@H](NC(=O)c3cnc(N4CCC(CN5CCC(n6ccc7c(N8CCC(=O)NC8=O)cc(F)cc76)CC5)CC4)cn3)CC2)cc1Cl [EAR202, N-((1r,4r)-4-(3-Chloro-4-cyanophenoxy)cyclohexyl)-5-(4-((4-(4-(2,4-dioxotetrahydropyrimidin-1(2H)-yl)-6-fluoro-1H-indol-1-yl)piperidin-1-yl)methyl)piperidin-1-yl)pyrazine-2-carboxamide hydrochloride]
≥ 50 | N#Cc1ccc(O[C@H]2CC[C@H](NC(=O)c3ccc(N4CCC(CN5CCC(Cn6ccc7c(N8CCC(=O)NC8=O)cccc76)CC5)CC4)nn3)CC2)cc1Cl [EAR26, N-((1r,4r)-4-(3-Chloro-4-cyanophenoxy)cyclohexyl)-6-(4-((4-((4-(2,4-dioxotetrahydropyrimidin-1(2H)-yl)-1H-indol-1-yl)methyl)piperidin-1-yl)methyl)piperidin-1-yl)pyridazine-3-carboxamide hydrochloride]
≥ 50 | CC1(C)[C@H](NC(=O)c2ccc(N3CCC(CN4CCC(n5ccc6c(N7CCC(=O)NC7=O)nccc65)CC4)CC3)nc2)C(C)(C)[C@H]1Oc1cnc(C#N)c(Cl)c1 [EAR259, N-((1r,3r)-3-((5-Chloro-6-cyanopyridin-3-yl)oxy)-2,2,4,4-tetramethylcyclobutyl)-6-(4-((4-(4-(2,4-dioxotetrahydropyrimidin-1(2H)-yl)-1H-pyrrolo[3,2-c]pyridin-1-yl)piperidin-1-yl)methyl)piperidin-1-yl)nicotinamide]
≥ 50 | N#Cc1ccc(O[C@H]2CC[C@H](NC(=O)c3ccc(N4CCN(CC(=O)N5CCC(n6ccc7c(N8CCC(=O)NC8=O)cccc76)CC5)CC4)nn3)CC2)cc1Cl [EAR134, N-((1r,4r)-4-(3-Chloro-4-cyanophenoxy)cyclohexyl)-6-(4-(2-(4-(4-(2,4-dioxotetrahydropyrimidin-1(2H)-yl)-1H-indol-1-yl)piperidin-1-yl)-2-oxoethyl)piperazin-1-yl)pyridazine-3-carboxamide]
≥ 50 | N#Cc1ccc(O[C@H]2CC[C@H](NC(=O)c3ccc(N4CCC(CN5CCC(n6ccc7c(N8CCC(=O)NC8=O)cccc76)CC5)CC4)nc3)CC2)cc1Cl [EAR13, N-((1r,4r)-4-(3-Chloro-4-cyanophenoxy)cyclohexyl)-6-(4-((4-(4-(2,4-dioxotetrahydropyrimidin-1(2H)-yl)-1H-indol-1-yl)piperidin-1-yl)methyl)piperidin-1-yl)nicotinamide]
≥ 50 | N#Cc1ccc(O[C@H]2CC[C@H](NC(=O)c3ccc(N4CCC(CN5CC[C@@H](n6ccc7c(N8CCC(=O)NC8=O)cccc76)[C@@H](F)C5)CC4)nn3)CC2)cc1Cl [EAR155, N-((1r,4r)-4-(3-Chloro-4-cyanophenoxy)cyclohexyl)-6-(4-(((3S,4R)-4-(4-(2,4-dioxotetrahydropyrimidin-1(2H)-yl)-1H-indol-1-yl)-3-fluoropiperidin-1-yl)methyl)piperidin-1-yl)pyridazine-3-carboxamide, hydrochloride]
≥ 50 | N#Cc1ccc(O[C@H]2CC[C@H](NC(=O)c3ccc(N4CCC(CN5CC(n6ccc7c(N8CCC(=O)NC8=O)cccc76)C5)CC4)nn3)CC2)cc1Cl [EAR131, N-((1r,4r)-4-(3-chloro-4-cyanophenoxy)cyclohexyl)-6-(4-((3-(4-(2,4-dioxotetrahydropyrimidin-1(2H)-yl)-1H-indol-1-yl)azetidin-1-yl)methyl)piperidin-1-yl)pyridazine-3-carboxamide]
≥ 50 | N#Cc1ccc(O[C@H]2CC[C@H](NC(=O)c3cnc(N4CCC(CN5CCC(n6ncc7c(N8CCC(=O)NC8=O)cc(F)cc76)CC5)CC4)nc3)CC2)cc1Cl [AR205, N-((1r,4r)-4-(3-Chloro-4-cyanophenoxy)cyclohexyl)-2-(4-((4-(4-(2,4-dioxotetrahydropyrimidin-1(2H)-yl)-6-fluoro-1H-indazol-1-yl)piperidin-1-yl)methyl)piperidin-1-yl)pyrimidine-5-carboxamide]

Structure (SMILES) | Dmax [%]
CC(C)n1ccc2c(N3CCC(=O)NC3=O)cc(C(=O)N(C)CC3CCN(CCC4CCN(c5ccc(N6C(=S)N(c7ccc(C#N)c(C(F)(F)F)c7)C(=O)C6(C)C)cc5)CC4)CC3)cc21 [EAR91, N-((1-(2-(1-(4-(3-(4-Cyano-3-(trifluoromethyl)phenyl)-5,5-dimethyl-4-oxo-2-thioxoimidazolidin-1-yl)phenyl)piperidin-4-yl)ethyl)piperidin-4-yl)methyl)-4-(2,4-dioxotetrahydropyrimidin-1(2H)-yl)-1-isopropyl-N-methyl-1H-indole-6-carboxamide] | ≥ 50
C[C@@H]1CN(c2ccc(C#N)c(Cl)c2)[C@@H](C)CN1C(=O)Nc1ccc(OCCCCN2CCC(n3ccc4c(N5CCC(=O)NC5=O)cncc43)CC2)nc1 [EAR111, (2R,5S)-4-(3-Chloro-4-cyanophenyl)-N-(6-(4-(4-(4-(2,4-dioxotetrahydropyrimidin-1(2H)-yl)-1H-pyrrolo[2,3-c]pyridin-1-yl)piperidin-1-yl)butoxy)pyridin-3-yl)-2,5-dimethylpiperazine-1-carboxamide] | ≥ 50
N#Cc1ccc(O[C@H]2CC[C@H](NC(=O)c3ccc(N4CCC(CN5CCC(n6ncc7c(N8CCC(=O)NC8=O)cccc76)CC5)C4)nn3)CC2)cc1Cl (stereo partly drawn) [EAR152, N-((1r,4r)-4-(3-Chloro-4-cyanophenoxy)cyclohexyl)-6-(3-((4-(4-(2,4-dioxotetrahydropyrimidin-1(2H)-yl)-1H-indazol-1-yl)piperidin-1-yl)methyl)pyrrolidin-1-yl)pyridazine-3-carboxamide, formic acid salt] | ≥ 50
CC1(C)C(=O)N(c2ccc(C#N)c(C(F)(F)F)c2)C(=S)N1c1ccc(N2CCC(CN3CCC(n4ccc5c(N6CCC(=O)NC6=O)cncc54)CC3)CC2)cc1 [EAR101, 4-(3-(4-(4-((4-(4-(2,4-Dioxotetrahydropyrimidin-1(2H)-yl)-1H-pyrrolo[2,3-c]pyridin-1-yl)piperidin-1-yl)methyl)piperidin-1-yl)phenyl)-4,4-dimethyl-5-oxo-2-thioxoimidazolidin-1-yl)-2-(trifluoromethyl)benzonitrile] | ≥ 50
